We go through two compounds from PMC5884870, “Antioxidant Role of PcGSTd1 in Fenpropathrin Resistant Population of the Citrus Red Mite, Panonychus citri (McGregor)” (Frontiers in Physiology, 2018).

For test [1], the target named is T1, PcGSTd1 (Panonychus citri, UniProt H9BTE1).
T1 construct: full ORF in pET-28a (BamHI/NotI), His-tag kept (Ni-NTA), E. coli TransBL21(DE3); EC 2.5.1.18
T1 sequence (H9BTE1 1-217): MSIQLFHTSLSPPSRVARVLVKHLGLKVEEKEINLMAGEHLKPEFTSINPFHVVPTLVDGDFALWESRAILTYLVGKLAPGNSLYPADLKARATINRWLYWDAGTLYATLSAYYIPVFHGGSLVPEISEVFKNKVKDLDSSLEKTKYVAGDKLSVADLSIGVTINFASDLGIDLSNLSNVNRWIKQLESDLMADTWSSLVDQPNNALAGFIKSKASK
Kind of test: CDNB-GSH conjugation, absorbance […] nm, Lineweaver-Burk. The note with it: co-substrate GSH; 28 C. It is filed as biochemical.

Test [2] concerns the target T1, PcGSTd1. Kind of test: CDNB-GSH conjugation, absorbance […] nm. It is filed as biochemical. As to conditions: 0.6 mM CDNB, 5 mM GSH, 0.05 M Tris-HCl pH 7.5; ECA 0.05-2 mM.

One may read the Km as the substrate concentration at which the rate is half of its maximum. In the case of `O=[N+]([O-])c1ccc(Cl)c([N+](=O)[O-])c1` [1-chloro-2,4-dinitrobenzene], the Km on PcGSTd1 [1] stood at 1820 ± 490 µM.

Broadly, the IC50 is the concentration that inhibits the measured activity by half. Low readings indicate higher potency, high ones lower potency. `C=C(CC)C(=O)c1ccc(OCC(=O)O)c(Cl)c1Cl` [ethacrynic acid] yielded a 50% inhibitory concentration (IC50) at PcGSTd1 [2] of 1130 ± 120 µM.
